Laboratory results: patent US12370143B2, “Compound or salt thereof and lipid particles” (FUJIFILM Corporation, priority 2018, dated 2025)
Read-outs that look alike come from different tables or passages of the source.

Tests used:
[1] = Particle size of nucleic acid lipid particles (Luc2-siRNA); assay type: physicochemical; conditions: compound/DSPC/cholesterol/DMG-PEG2000 50/10/38.5/1.5
Method: By using the dispersion liquid of lipid particles as it was, the particle size of the lipid particles was measured using a zeta potential/particle size measurement system ELS-Z2 (Otsuka Electronics Co., Ltd.).
(§1) The compounds described in Table 2, L-α-distearoylphosphatidylcholine (trade name: COATSOME® MC-8080; NOF corporation), cholesterol (trade name: Choesterol HP; NIPPON FINE CHEMICAL CO., LTD.), and 1,2-dimyristoyl-rac-glycero-3-(methylpolyoxyethylene 2000) (hereinafter, called DMG-PEG2000) (trade name: SUNBRIGHT® GM-020; NOF corporation) were dissolved in ethanol at a molar ratio of 50/10/38.5/1.5 such that the total lipid concentration became 20 mmol/L, thereby obtaining an oil phase.
(§2) An aqueous nucleic acid solution obtained by dissolving 5 mg of Luc2-siRNA having the sequence described in Biomacromolecules (2013) 14, p. 3905 in 1 mL of sterile water was diluted with 10 mmol/L acetate buffer having a pH 4 such that the nucleic acid concentration became 19.7 μmol/L, thereby obtaining a water phase. Then, the water phase and the oil phase were mixed together by a micromixer (see JP5288254B) using a syringe pump such that the volume ratio of water phase:oil phase became 3:1 (final ratio of siRNA/lipid=339 (mol/mol)), and the mixed solution was diluted 2× with PBS, thereby obtaining a dispersion liquid of nucleic acid lipid particles. The dispersion liquid was dialyzed (Slide-A-Lyzer G2, MWCO: 10 kD, Thermo Fisher Scientific) using a phosphate buffered saline such that ethanol was removed, thereby obtaining nucleic acid lipid particles.
The particle size of the nucleic acid lipid particles was measured by the same method as that in <Preparation of lipid particles>.

[2] = system: DMS273 cells constantly expressing Luc; assay: Target reporter protein (Luc) knockdown in cell, reporter protein assay; assay type: cell-based; conditions: Homo sapiens, DMS-273
Method: The nucleic acid lipid particles prepared by the same method as that in <Preparation of nucleic acid lipid particles> by using the compounds described in Table 3 were evaluated by reporter assay by the following method.
By using pGL4.50 Luc2 (E1310 Promega), DMS273 cells (human small cell lung cancer) (European Collection of Authenticated Cell Cultures) constantly expressing Luc were prepared. RPMI (Gibco) (10% FBS (Gibco), 1% Penicillin-Streptomycin (Gibco), and 200 μg/mL Hygromycin (Wako)) was used as a culture medium. DMS273 cells (2.0×10^3) constantly expressing luciferase (Luc) were seeded in a 96-well plate and cultured in a 5% CO2 incubator for 24 hours, and then the medium was replaced. Then, 10 μL of each of the dispersion liquids of lipid particles diluted with PBS (Gibco) to yield a concentration of 1 to 1,000 nmol/L was added to the 96-well plate, and the final concentration was adjusted to 0.1 to 100 nmol/L (total amount of liquid: 110 μl). Thereafter, the cells were cultured in a 5% CO2 incubator for 24 hours, the medium was then replaced, and the cells were further cultured for 24 hours.
After the viable cell count was determined, the expression amount of Luc was quantified using a Steady Glo assay kit (Promega), and the knockdown efficiency was calculated according to the following equation. Then, the IC50 concentration at which the expression amount of Luc was knocked down to 50% was calculated.

[3] = Encapsulation rate of siRNA in nucleic acid lipid particles (Luc2-siRNA); assay type: physicochemical; conditions: compound/DSPC/cholesterol/DMG-PEG2000 50/10/38.5/1.5
Method: as §1, §2
A 3 mol/L aqueous sodium acetate solution (30 μL) and 9 μL of glycogen were added to 60 μL of the lipid particles retaining nucleic acids, and then 1.5 mL of ethanol was added thereto such that only the nucleic acids were precipitated while the lipid was dissolved. Then, the supernatant was removed by centrifugation. After the precipitates were air-dried for 15 minutes or longer, water was added thereto such that the precipitates were redissolved, and the concentration thereof was measured using Nanodrop NF1000 (Thermo Fisher Scientific), thereby quantifying the total nucleic acid concentration.
The nucleic acid concentration was quantified using a Quant-iT RiboGreen RNA Assay Kit (Thermo Fisher Scientific) according to the protocol. First, a 20×TE buffer included in the above kit was diluted with water, thereby obtaining a 1×TE buffer. TE represents Tris/EDTA (ethylenediaminetetraacetic acid). In order to quantify only the nucleic acid in the outer water phase, the dispersion liquid of lipid particles retaining nucleic acids was diluted 10,000× with the 1×TE buffer.
The 10,000× diluted dispersion liquid of lipid particles (100 μL) was put in a 96-well plate, then 100 μL of a RiboGreen reagent (reagent included in the Quanti-iT Ribogreen RNA Assay Kit described above) diluted 2000× with the 1×TE buffer was added to a sample, and fluorescence (excitation wavelength: 485 nm, fluorescence wavelength: 535 nm) was measured using a plate reader Infinit EF200 (TECAN), thereby quantifying the nucleic acid concentration in the outer water phase.
By using the total nucleic acid concentration obtained through the above steps and the quantified nucleic acid concentration in the outer water phase, the nucleic acid encapsulation rate of the nucleic acid lipid particles was calculated according to the following Equation. Nucleic acid encapsulation rate (%)=(total nucleic acid concentration−nucleic acid concentration in outer water phase)/total nucleic acid concentration×100 The results are shown in Table 2.

[4] = Luc2-siRNA lipid particles using the compound, siRNA 0.1 to 100 nmol/L, concentration at which Luc expression is knocked down to 50%, read-out: IC50

## CCCCC/C=C\C/C=C\CCCCCCCCN(CCCCCCCC/C=C\C/C=C\CCCCC)C(=O)OCCN(C)C [Comparative Example 3, reference compound]
[1]
  Particle size (nm): 72.4 nm
[2]
  IC50: > 100 nM
[3]
  Nucleic acid encapsulation rate: 80%

## CCCCC/C=C\C/C=C\CCCCCCCC(CCCCCCCCCC)OC(=O)OCCN(CC)CCN(C)C (stereo not drawn) [Example 33, 2-((2-(Dimethylamino)ethyl)(ethyl)amino)ethyl((19Z,22Z)-octacosa-19,22-dien-11-yl)carbonate]
[1]
  Particle size (nm): 67.9 nm
[2]; [4]
  IC50: 12 nM
[3]
  Nucleic acid encapsulation rate: 87%

## CCCCC/C=C\C/C=C\CCCCCCCCC(CCCCCCCC/C=C\C/C=C\CCCCC)OC(=O)OCCN(CCN(C)C)C(C)C [Example 25, 2-((2-(Dimethylamino)ethyl)(isopropyl)amino)ethyl((6Z,9Z,28Z,31Z)-heptatriaconta-6,9,28,31-tetraen-19-yl)carbonate]
[1]
  Particle size (nm): 68.5 nm
[2]; [4]
  IC50: 16 nM
[3]
  Nucleic acid encapsulation rate: 76%

## CCCCCCC(CCCC)COC(=O)CCCC(CCCCCC)OC(=O)OCCN(CCO)CCN(CC)CC (stereo not drawn) [Example 101, 2-Butyloctyl 3-ethyl-12-hexyl-6-(2-hydroxyethyl)-10-oxo-9,11-dioxa-3,6-diazahexadecan-16-oate]
[1]
  Particle size (nm): 177.3 nm
[2]; [4]
  IC50: 39 nM
[3]
  Nucleic acid encapsulation rate: 68%

## CCCCC/C=C\C/C=C\CCCCCCCCN(CCCCCCCC/C=C\C/C=C\CCCCC)C(=O)OCCN1CCN(C)CC1 [Comparative Example 5, 2-(4-Methylpiperazin-1-yl)ethyl di((9Z,12Z)-octadeca-9,12-dien-1-yl)carbamate, reference compound]
[1]
  Particle size (nm): 75.1 nm
[2]; [4]
  IC50: > 100 nM
[3]
  Nucleic acid encapsulation rate: 87%

## CCCCC/C=C\C/C=C\CCCCCCCCN(CCCCCCCC/C=C\C/C=C\CCCCC)C(=O)CN(C)CCN(C)C [Comparative Example 6, 2-((2-(dimethylamino)ethyl)(methyl)amino)-N,N-di((9Z,12Z)-octadeca-9,12-dien-1-yl)acetamide, reference compound]
[1]
  Particle size (nm): 81.9 nm
[2]; [4]
  IC50: > 100 nM
[3]
  Nucleic acid encapsulation rate: 89%

## CCCCC/C=C\C/C=C\CCCCCCCCN(CCCCCCCC/C=C\C/C=C\CCCCC)C(=O)OC1CCN(CCN(C)C)CC1 [Example 3, 1-(2-(Dimethylamino)ethyl)piperidin-4-yl di((9Z,12Z)-octadeca-9,12-dien-1-yl)carbamate]
[1]
  Particle size (nm): 83.6 nm
[2]; [4]
  IC50: 43 nM
[3]
  Nucleic acid encapsulation rate: 100%

## CCCCC/C=C\C/C=C\CCCCCCCCC(CCCCCCCC/C=C\C/C=C\CCCCC)OC(=O)CCCN(C)C [Reference Example 1, (6Z,9Z,28Z,31Z)-heptatriaconta-6,9,28,31-tetraen-19-yl-4-(dimethylamino)butanoate, reference compound]
[1]
  Particle size (nm): 69.6 nm
[2]; [4]
  IC50: 47 nM
[3]
  Nucleic acid encapsulation rate: 81%

## CCCCCCCCC(CCCCCC)COC(=O)CCCCCC(CCCCCC)OC(=O)OCCN(CCN(CC)CC)C(C)C (stereo not drawn) [Example 116, 2-Hexyldecyl 3-ethyl-12-hexyl-6-isopropyl-10-oxo-9,11-dioxa-3,6-diazaoctadecan-18-oate]
[1]
  Particle size (nm): 76.3 nm
[2]; [4]
  IC50: 25 nM
[3]
  Nucleic acid encapsulation rate: 73%

## CCCCC/C=C\C/C=C\CCCCCCCCN(CCCCCCCC/C=C\C/C=C\CCCCC)C(=O)OC1CCCN(CCN(C)C)C1 (stereo not drawn) [Example 4, 1-(2-(Dimethylamino)ethyl)piperidin-3-yl di((9Z,12Z)-octadeca-9,12-dien-1-yl)carbamate]
[1]
  Particle size (nm): 66.1 nm
[2]; [4]
  IC50: 10 nM
[3]
  Nucleic acid encapsulation rate: 81%

## CCCCC/C=C\C/C=C\CCCCCCCC(CCCCCCCCCC)OC(=O)OCCN(C)CCN(C)C (stereo not drawn) [Example 29, 2-((2-(Dimethylamino)ethyl)(methyl)amino)ethyl((19Z,22Z)-octacosa-19,22-dien-11-yl)carbonate]
[1]
  Particle size (nm): 70.1 nm
[2]; [4]
  IC50: 19 nM
[3]
  Nucleic acid encapsulation rate: 77%
